Test results taken from PMC4790384, “Position-Dependent Influence of the Three Trp Residues on the Membrane Activity of the Antimicrobial Peptide, Tritrpticin” (Antibiotics, 2014).
≈ marks a conversion by molar mass, not a printed value. Ends that are not written are not given here.

What follows are compounds tested on E. coli ATCC 25922.
Assay type: cell-based, Escherichia coli
Procedure: The minimum inhibitory concentration (MIC) of Tritrp1 and its Trp-substituted analogs against E. coli ATCC 25922 was measured by the standard broth microdilution method. Bacteria (5 × 10^5 CFU/mL) were incubated overnight at 37 °C in Mueller-Hinton broth (MHB) and in the presence of peptides diluted in a two-fold concentration series ranging from 0.25–128 µM in a 96-well polypropylene plate. The reported MIC values correspond to the minimum peptide concentration where bacterial growth was not observed. After overnight incubation, 10 µL from the first three wells without bacterial growth for each peptide in the MIC plate were diluted 1:10^6 in MHB, and 100 µL of this dilution was plated in MHB-agar. After incubation overnight at 37 °C, the minimum bactericidal concentration (MBC) was reported as the minimum peptide concentration where no colony formation was detected.
For VRRFPAAAPFLRR-NH2 [A-Tritrp], the MBC was >128 µM and the MIC was >128 µM. In the case of VRRFPWWAPFLRR-NH2 [Peptide W8A], the MBC is reported as 8 µM and the MIC is reported as 8 µM. VRRFPWAAPFLRR-NH2 [Peptide W78A] was tested, and the MBC was 64 to 128 µM and the MIC was 64 to 128 µM. VRRFPYWWPFLRR-NH2 [Peptide W6Y] was tested, and the MBC was 16 µM and the MIC was 16 µM. Work on VRRFPWWYPFLRR-NH2 [Peptide W8Y] yielded an MBC of 4 µM and an MIC of 4 µM. For VRRFPWYYPFLRR-NH2 [Peptide W78Y], the MBC was 16 µM and the MIC was 16 µM. VRRFPWAWPFLRR-NH2 [Peptide W7A] gave an MBC of 16 µM and an MIC of 16 µM. In the case of VRRFPWYWPFLRR-NH2 [Peptide W7Y], the MBC is reported as 8 µM and the MIC is reported as 8 µM. VRRFPYYYPFLRR-NH2 [Y-Tritrp] gave an MBC of 16 to 32 µM. For VRRFPAWAPFLRR-NH2 [Peptide W68A], the MBC was 64 to 128 µM and the MIC was 64 to 128 µM. For VRRFPYYWPFLRR-NH2 [Peptide W67Y], the MBC was 32 µM and the MIC was 32 µM. Work on VRRFPAAWPFLRR-NH2 [Peptide W67A] yielded an MBC of 64 to 128 µM and an MIC of 64 to 128 µM. In the case of VRRFPYWYPFLRR-NH2 [Peptide W68Y], the MBC is reported as 16 µM and the MIC is reported as 16 µM. VRRFPAWWPFLRR-NH2 [Peptide W6A] gave an MBC of 32 to 64 µM and an MIC of 32 to 64 µM. Work on `CC(C)C[C@H](NC(=O)[C@H](Cc1ccccc1)NC(=O)[C@@H]1CCCN1C(=O)[C@H](Cc1c[nH]c2ccccc12)NC(=O)[C@H](Cc1c[nH]c2ccccc12)NC(=O)[C@H](Cc1c[nH]c2ccccc12)NC(=O)[C@@H]1CCCN1C(=O)[C@H](Cc1ccccc1)NC(=O)[C@H](CCCNC(=N)N)NC(=O)[C@H](CCCNC(=N)N)NC(=O)[C@@H](N)C(C)C)C(=O)N[C@@H](CCCNC(=N)N)C(=O)N[C@@H](CCCNC(=N)N)C(N)=O` [Tritrp1, reference compound] yielded an MBC of 4 µM (≈ 7.61 µg/mL) and an MIC of 4 µM (≈ 7.61 µg/mL).
